Values after ≈ are worked out from the molar mass of the structure shown. Numbered stars: 1 amine (or outer) side, 2 acyl side, 3 side chain; on linkers, the order of the positions; unused ones are H or OH. Square brackets hold non-standard residues; d marks the D form. Peptide text beside a SMILES is read from it. * marks the point of attachment. X1 = CCC(=O)C[C@@H](O)C[C@@H](C)C[C@H](N[*:1])C(=O)[*:2]; Alaψ(CH2NMeCH2CH2OH) = C[C@@H](CN(C)CCO)N*; Decanoyl(2R-Me) = CCCCCCCC[C@@H](C)C(=O)*; Aib = CC(C)(N)C(=O)O
Key:
Type in all cases: functional
[1] = system: Mycobacterium tuberculosis; assay: Antimycobacterial activity against Mycobacterium tuberculosis
[2] = system: Mycobacterium tuberculosis; assay: Antimycobacterial activity against Mycobacterium tuberculosis H37Rv ATCC 27294
[3] = system: Mycobacterium tuberculosis; assay: Antimycobacterial activity against Mycobacterium tuberculosis isolate CIBIN/UMF 15:19
[4] = system: Mycobacterium tuberculosis; assay: Antimycobacterial activity against Mycobacterium tuberculosis H37Rv
[5] = system: Mycobacterium tuberculosis; assay: Antimycobacterial activity against Mycobacterium tuberculosis H37Ra
[6] = Mycobacterium tuberculosis, H37Rv, read-out: MIC

SMILES	MIC [5]	also measured
COc1cc(O[C@@H]2O[C@H](CO)[C@@H](O)[C@H](O)[C@H]2O)c2c(O)c(C(C)=O)c(C)cc2c1	–	MIC [1]: 8.9 µM
COc1c(O)cc2c(c1CC=C(C)C)C(=O)c1c(cc(OS(=O)(=O)O)c(CC=C(C)C)c1O)C2	–	MIC [1]: 6.75 µM
CC(=O)c1c(C)cc2cccc(O[C@@H]3O[C@H](CO)[C@@H](O)[C@H](O)[C@H]3O)c2c1O	–	MIC [1]: 26.6 µM
CC(=O)OC[C@H]1O[C@@H](Oc2cccc3c2C(=O)c2c(O)cc(C)cc2C3=O)[C@H](O)[C@@H](O)[C@@H]1O	–	MIC [1]: 4.1 µM
CCCCOC(=O)[C@]12CC[C@@]3(C)C[C@H]4O[C@@]4(C)[C@H]4O[C@H]4[C@H]3[C@@H]1CC[C@@H]2C(C)C	–	MIC [2]: 6.25 µg/mL (≈ 16 µM); MIC [3]: 6.25 µg/mL (≈ 16 µM)
CCCCCCC[C@@H]1C[C@@H]2CCC3=C(C(=O)OCCCCCCC[C@@H]4C[C@@H]5CC[C@@H]6C[C@H](C)NC(=N4)N65)C(C)N=C(N1)N32 (stereo partly specified)	–	MIC [2]: 28.5 µg/mL (≈ 47.9 µM)
CCCCCCC[C@H]1C[C@H]2CCC3=C(C(=O)OCCCCNC(=N)N)C(CCCCC)N=C(N1)N32 (stereo partly specified)	–	MIC [2]: 34.7 µg/mL (≈ 71 µM)
CCCCCCC[C@H]1C[C@H]2CCC3=C(C(=O)OCCCCNC(=N)N)C(CCCCC)=NC(=N1)N32	–	MIC [2]: 37.7 µg/mL (≈ 77.5 µM)
CCC1C=CCC[C@@]2(C[C@@H]3CC[C@@H]4[C@H](C(=O)OCCCCCCCCCCCCCCCC(=O)N(CCCN)C[C@@H](O)CCN)[C@]5(CCC[C@@H](C)O5)NC(=N2)N34)O1 (stereo partly specified)	–	MIC [2]: 46.5 µg/mL (≈ 58 µM)
C/C(=C\CO)CCCC(C)CCCC(C)CCCC(C)C (stereo unspecified)	–	MIC [2]: 1.56 µg/mL (≈ 5.26 µM)
CC(C)[C@]12C=C3CC[C@H]4[C@](C)(C(=O)O)CCC[C@]4(C)[C@]3(CC1)OO2	–	MIC [1]: 50 µg/mL
CSSc1cccc[n+]1[O-]	–	MIC [2]: 1.25 µg/mL (≈ 7.21 µM)
CC(C)(O)c1ccc2c(c1)CC[C@H]1[C@](C)(C(=O)O)CCC[C@]21C	–	MIC [1]: 50 µg/mL
C[C@@H]1C[C@H](C)C(=O)/C=C/C2[C@@H](O)C3OC4=C(C(=O)O[C@@]42C[C@H]3C)C1=O (stereo in doubt; 208)	–	MIC [1]: 8.3 µg/mL; MIC [4]: 3.6 µM (≈ 1.25 µg/mL)
CCOC(=O)/C=C/c1ccc(OC)cc1 [4-METHOXY ETHYL CINNAMATE]	485 µM	MIC [4, 6]: 242 µM (≈ 49.9 µg/mL)
O=C(CCCCCCCCCCCC[C@H]1C=CCC1)OCC(O)CO (stereo partly specified) [ANTHELMINTHICINS C]	–	MIC [1]: 11.3 µM; MIC [4, 6]: 4.38 µM (≈ 1.55 µg/mL)
CCCCCCCCC[C@@H]1C[C@@H]2CC[C@H]3[C@@H](C(=O)OC(C)CCCCCCC[C@@H]4C[C@@H]5CC[C@@H]6C[C@H](C)NC(=N4)N65)[C@@H](C)N=C(N1)N23 (stereo partly specified) [BATZELLADINE L]	–	MIC [2]: 1.68 µg/mL (≈ 2.57 µM)
CCCCCCC[C@@H]1C[C@@H]2CCC3=C(C(=O)OC(C)CCCCCCC[C@@H]4C[C@@H]5CC[C@@H]6C[C@H](C)NC(=N4)N65)C(C)N=C(N1)N32 (stereo partly specified) [BATZELLADINE N]	–	MIC [2]: 3.18 µg/mL (≈ 5.1 µM)
O=C(/C=C/CCCC/C=C/c1ccc2c(c1)OCO2)N1CCCC1 [BRACHYAMIDE B]	50 µg/mL	–
CC(C)CNC(=O)/C=C/C=C/CCCCCCCC/C=C/c1ccc2c(c1)OCO2 [BRACHYSTAMIDE B]	50 µg/mL	–
C=C1C(=O)O[C@@H]2/C=C(/CO)C3=CC(=O)[C@@](C)(C[C@H](OC(=O)/C(C)=C\C)[C@@H]12)O3 [CENTRATHERIN]	3.1 µg/mL	–

SMILES	MIC [5]	also measured
C/C=C(\C)C(=O)C1=C2C3=COC(/C=C/[C@@H](C)CC)=CC3=C(Cl)C(=O)[C@@]2(C)OC1=O [CHAETOVIRIDIN E]	50 µg/mL	–
O=Cc1cc2c(cc1O)[nH]c1cc(O)ccc12 [CLAUSINE O]	25 µg/mL	–
COc1ccc(C/C=C/c2ccc(O)cc2)c(OC)c1O [DALPARVINENE]	50 µg/mL	–
COc1cc(OC)c(-c2coc3cc(O)cc(O)c3c2=O)cc1O [DALPARVONE]	50 µg/mL	–
COc1ccc2c(=O)c(OC)c(-c3ccc4c(c3)OCO4)oc2c1 [DEMETHOXYKANUGIN]	50 µg/mL	–
CCCCCCCCCCCC(=O)c1c(O)cc(O)cc1O [DODECANOYLPHLOROGLUCINOL]	50 µg/mL	–
CC(=O)O[C@@H]1C[C@H]2C(C)(C)C(=O)C=C[C@]2(C)[C@H]2CC[C@@]3(C)[C@H](c4ccoc4)C(=O)[C@H]4O[C@]43[C@@]21C [EPOXYAZADIRADIONE]	25 µg/mL	–
C=C(C)C(=O)O[C@H]1C[C@@]2(C)OC(=CC2=O)/C(CO)=C\[C@H]2OC(=O)C(=C)[C@H]12 [GOIAZENSOLIDE]	3.1 µg/mL	–
CC1(C)C=Cc2c(cc3oc(CO)cc(=O)c3c2O)O1 [GREVEICHROMENOL]	50 µg/mL	–
C=C[C@H]1C=C[C@H]2[C@@H]3C[C@H](C)CC[C@H]3[C@@H]3Oc4ccc(cc4)C[C@]4(O)NC(=O)[C@H](C(=O)[C@@H]1[C@H]23)C4N1C(=O)[C@H]2C(=O)[C@H]3[C@@H](C=C)C=C[C@H]4[C@@H]5C[C@H](C)CC[C@H]5[C@H](Oc5ccc(cc5)C[C@@H]2C1=O)[C@@H]43 (stereo partly specified) [HIRSUTELLONE F]	3.12 µg/mL	–
O=C1C=C[C@@H](OC(=O)/C=C/c2ccccc2)[C@@H]([C@H]2O[C@@H]2c2ccccc2)O1 [HOWIININ A]	6.25 µg/mL	–
C=C1C(=O)O[C@H]2[C@H]1[C@@H](OC(=O)/C(C)=C\C)C[C@@]1(C)OC(=CC1=O)C(=C)[C@H]2O [ISOCENTRATHERIN]	3.1 µg/mL	–
C=C(C)C(=O)O[C@H]1C[C@@]2(C)OC(=CC2=O)C(=C)[C@@H](O)[C@H]2OC(=O)C(=C)[C@@H]21 [ISOGOIAZENSOLIDE]	1.5 µg/mL	–
COc1c(-c2ccccc2)oc2c3c(ccc2c1=O)OC(C)(C)C=C3 [KARANJACHROMENE]	12.5 µg/mL	–
O=c1cc(-c2ccccc2)oc2c1ccc1occc12 [LANCEOLATIN B]	50 µg/mL	–
O=C1c2ccccc2-c2c3c(cc4ccnc1c24)OCO3 [LIRIODENINE]	–	MIC [1]: 12.5 µg/mL
C=C1C(=O)O[C@@H]2/C=C(/CO)C3=CC(=O)[C@@](C)(C[C@H](OC(=O)/C(C)=C/C)[C@@H]12)O3 [LYCHNOPHOROLIDE B]	6.2 µg/mL	–
Oc1ccc2c(c1)OC[C@H]1c3cc4c(cc3O[C@@H]21)OCO4 [MAACKIAIN]	50 µg/mL	–
O=C(CCCCCCCCc1ccccc1)c1c(O)cccc1O [MALABARICONE A]	25 µg/mL	–
COc1c(O)cc2oc3cc(O)c(CC=C(C)C)c(O)c3c(=O)c2c1CC=C(C)C [MANGOSTIN]	–	MIC [1]: 15.2 µg/mL
COC(=O)/C=C/c1ccc(O)c(O)c1 [METHYLCAFFEATE]	25 µg/mL	–

SMILES	MIC [5]	also measured
COc1cccc2c1C(=O)c1nccc3cc4c(c-2c13)OCO4 [OXOSTEPHANINE]	–	MIC [1]: 50 µg/mL
CCCCC/C=C/C=C/C(=O)NCC(C)C [PELLITORIN]	50 µg/mL	–
C=C(C)CC(O)c1c(OC)cc(O)c2c(=O)cc(C)oc12 (stereo unspecified) [PERFORAMONE B]	25 µg/mL	–
CC1(C)C=Cc2c(cc(O)c3c(=O)cc(CO)oc23)O1 [PERFORAMONE D]	25 µg/mL	–
CC(C)C(O)C(=O)N/C=C\C=C/NC(=O)C(O)C(C)C (stereo unspecified) [PHOMOENAMIDE]	–	MIC [1]: 6.25 µg/mL
C=C[C@@]1(C)C=C2CC[C@@H]3[C@](C)(CCC[C@@]3(C)C(=O)O)[C@H]2CC1 [PIMARIC ACID]	–	MIC [1]: 50 µg/mL
COc1c2ccoc2cc2oc(-c3ccccc3)cc(=O)c12 [PINNATIN]	12.5 µg/mL	–
O=C1C[C@@H](c2ccccc2)Oc2cc(O)cc(O)c21 [PINOCEMBRIN]	12.5 µg/mL	–
CC[C@H](C)[C@H]1C(=O)N[C@@H](Cc2ccc(OCC=C(C)C)cc2)C(=O)N(C)[C@@H](C)C(=O)O[C@H](Cc2ccccc2)C(=O)N2CCC[C@H]2C(=O)N[C@@H](CO)C(=O)N1C [PULLULARIN A]	25 µg/mL	–
CC(C)=CCOc1ccc(C[C@@H]2NC(=O)[C@H](C(C)C)N(C)C(=O)[C@H](CO)NC(=O)[C@@H]3CCCN3C(=O)[C@@H](Cc3ccccc3)OC(=O)[C@H](C)N(C)C2=O)cc1 [PULLULARIN C]	50 µg/mL	–
NC(=O)c1cnccn1 [PYRAZINAMIDE]	810 µM	MIC [4, 6]: 810 µM (≈ 99.7 µg/mL)
C/C=C/C(=O)OC[C@H]1O[C@@H](Oc2cccc3cc(C)c(C(C)=O)c(O)c23)[C@H](O)[C@@H](O)[C@@H]1O [RUMEXNEPOSIDE A]	–	MIC [1]: 20.7 µM
CSCCC(NC(=O)NC(Cc1c[nH]c2ccccc12)C(=O)O)C(=O)NC(C(=O)N/C=C1\C[C@@H](O)[C@H](n2ccc(=O)[nH]c2=O)O1)C(C)N(C)C(=O)C(N)Cc1cccc(O)c1 (stereo partly specified) [SANSANMYCIN A]	–	MIC [2]: 16 µg/mL (≈ 18.5 µM)
CSCCC(NC(=O)NC(Cc1c[nH]c2ccccc12)C(=O)O)C(=O)NC(C(=O)N/C=C1\C[C@@H](O)[C@H](n2ccc(=O)[nH]c2=O)O1)C(C)N(C)C(=O)C1Cc2cc(O)ccc2C(C)(C)N1 (stereo partly specified) [SANSANMYCIN F]	–	MIC [2]: 16 µg/mL (≈ 17.7 µM)
CC(C)CC(NC(=O)NC(Cc1c[nH]c2ccccc12)C(=O)O)C(=O)NC(C(=O)N/C=C1\C[C@@H](O)[C@H](n2ccc(=O)[nH]c2=O)O1)C(C)N(C)C(=O)C1Cc2cc(O)ccc2C(C)(C)N1 (stereo partly specified) [SANSANMYCIN G]	–	MIC [2]: 16 µg/mL (≈ 18.1 µM)
CCCCC/C=C/C=C/C(=O)N1CCCC1 [SARMENTINE]	50 µg/mL	–
O=C(/C=C/CC/C=C/c1ccc2c(c1)OCO2)N1CCCC1 [SARMENTOSINE]	50 µg/mL	–
COc1cc(O)c2c(O)c(C(C)=O)c(C)cc2c1 [TORACHRYSONE]	–	MIC [1]: 6.1 µM
CCCCCCCC[C@@H](C)C(=O)N1CCC[C@H]1C(=O)N[C@@H](C[C@H](C)C[C@H](O)CC(=O)CC)C(=O)NC(C)(C)C(=O)NC(C)(C)C(=O)N[C@H](C(=O)N[C@H](C(=O)NC(C)(C)C(=O)NC(C)(C)C(=O)N[C@@H](C)CN(C)CCO)C(C)C)[C@@H](C)CC [TRICHODERIN A] ({Decanoyl(2R-Me)}-P[X1][Aib][Aib]IV[Aib][Aib]-{Alaψ(CH2NMeCH2CH2OH)})	25 µg/mL	–

From ChEMBL document CHEMBL2203104, “Recent advances in antitubercular natural products” (Eur J Med Chem, 2012)
